Read-outs that look alike come from different tables or passages of the source.
Legend:
[1] = target: T1, progestin receptor from rabbit uterus (Oryctolagus cuniculus, UniProt P06186); assay: Progestin receptor binding (3H-R5020 displacement); details: rabbit uterine cytosol, 4° C., 18 h, read-out: IC50: Binding affinity for the progestin receptor from rabbit uterus
T1 construct: Cytosolic progestin receptor were obtained by mixing rabbit uterine tissue with a Tris buffer; from tissue; host or cells: rabbit uterus cytosol
Procedure, shortened: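 Displacement of the radioligand 3H-R5020 was measured in cytosol from homogenized rabbit uterus (pH 7.4 Tris/EDTA/DTT/molybdate buffer), with compounds at 5% final DMSO and about 18 h at 4 °C. Charcoal removed free ligand, scintillation counting quantified bound ligand, and IC50 was the concentration displacing half.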

[2] = tested on: mouse (MC3T3-E1) and human (TE-85) osteoblast-line cells; assay type: cell-based
Procedure, shortened: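 Proliferation was read as ^3H-thymidine (0.4 μCi) uptake during a 4 h pulse, which started 20 h after compound addition. Before dosing, cells sat 24 h in 0.1% FBS. Values are % times control (100%).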

[3] = tested on: Human T47D breast carcinoma cells; assay: Ex vivo progestational test (T47D proliferation); assay type: cell-based; details: SC200, 3H-thymidine incorporation
Method: The progestational activity of the compounds was accessed by their ability to stimulate proliferation of human breast carcinoma cells. Proliferation was measured as the ability to stimulate ^3 H-thymidine incorporation into these cells in vitro. Human T47D breast carcinoma cells (American Type Tissue Collection #133-HTB) were maintained in media consisting or RPMI 1640 supplemented with 10% fetal bovine serum, 10 ug/ml insulin, 10 U/ml pennicillin, 100 ug/ml streptomycin, and 2 mM L-glutamine. Monolayer cell cultures were trypsinized and washed in assay media consisting of phenol red-free RPMI 1640 supplemented with 5% charcoal-stripped, fetal bovine serum, and the other ingredients listed above. Cells were then plated in a 96-well plate. After a 48-hour incubation period at 37° C., the conditioned media was removed and replaced with fresh media containing test compounds in DMSO (0.1% DMSO final concentration). The cell cultures were incubated for 18 to 20 hours at 37° C. ^3 H-thymidine was then added to each well and the cell cultures were incubated at 37° C. for an additional 4 hours. Labelling was stopped by addition of un labelled thymidine. The cultures were washed twice, trypsinized and then harvested onto a filter mat. Incorporated ^3 -H-thymidine was measured by liquid scintillation counting. Data was expressed as a percent stimulation above control level which was set at 100%. An SC200 value was calculated as the concentration of test material needed to stimulate ^3 H-thymidine incorporation 200% of control.
Aspects of the application of the procedure used are described in the following: C. Christensen, D. Gunter, D. Saunders and V. Malviya, Gynecol. Oncol., 28, 25 (1987); J. Puzas, R. Drivdahl, G. Howard and D. Baylink, Proc. Soc. Exp. Biol. Med., 166, 113 (1981); and I. Keydar, L. Chen, S. Karby, F. Weiss, J. Delarea, M. Raduy, S. Chaitcik and H. Brenner, Eur. J. Cancer, 15, 659 (1979)

[4] = tested on: rabbit endometrium; assay: In vivo progestational test (McGinty Test); set-up: species or system rabbit (immature New Zealand White female); key: Active in Clauberg Assay; Active in McGinty Assay; details: injection into uterine horn, 72 hours
Method: Progestational activity was measured in vivo by the ability to stimulate the rabbit endometrium after injection into the uterine horn.
Immature New Zealand White female rabbits were injected subcutaneously for 6 days with 5.0 μg of 17β-estradiol per day. On the 7th day the rabbits were anesthetized, the abdomen opened and a uterine horn exposed. Two ligatures were placed around a segment of the uterus 3-4 cm long, leaving the major blood vessels outside the ties.
The upper ligature was tied tightly, and the lower one was left loose. A needle attached to a syringe was injected in the uterus below the second ligature and up into the area between the two ligatures. As the test material was injected, the ligature was tightened and held tight so that the needle was withdrawn without the loss of fluid. The second ligature was secured and the abdomen closed.
The rabbits were sacrificed approximately 72 hours after the injection. The uteri were removed, fixed in 10% buffered formalin, sectioned at 6μ, and stained with hematoxylin and eosin. The evaluation for endometrial proliferation was made according to a McPhail Index. Each slide was graded for each rabbit on a 0 (no response)-4 (maximum response) scale.

[5] = tested on: rabbit endometrium; assay: In vivo progestational test (Clauberg Test); set-up: species or system rabbit (immature New Zealand White female); key: Active in Clauberg Assay; Active in McGinty Assay; details: oral or parenteral, daily for five days
Method: Progestational activity was also measured in vivo by the abiity to stimulate the rabbit endometrium after either oral or parenteral administration.
[…]. Starting on the 7th day, the rabbits were given the test material daily for five days. The rabbits were sacrificed approximately 24 hours after the last administration, and the uteri were excised, trimmed and weighed. Portions of both uterine horns were fixed in 10% neutral formalin, sectioned at 6μ and stained with hematoxylin and eosin. Progestational activity was assessed as described above for the McGinty Test.

[6] = tested on: mature female rabbits; assay: Additional test to determine bone growth activity (bone density by dual X-ray densitometry); assay type: in vivo, rabbit; details: oral once daily, 12 weeks, vs vehicle treated control
Method: Test compounds were orally administered once daily to mature female rabbits for 12 weeks. Bone density was measured by dual X-ray densitometry and results were expressed as % base line bone mineral content.

T1 sequence (P06186 whole entry): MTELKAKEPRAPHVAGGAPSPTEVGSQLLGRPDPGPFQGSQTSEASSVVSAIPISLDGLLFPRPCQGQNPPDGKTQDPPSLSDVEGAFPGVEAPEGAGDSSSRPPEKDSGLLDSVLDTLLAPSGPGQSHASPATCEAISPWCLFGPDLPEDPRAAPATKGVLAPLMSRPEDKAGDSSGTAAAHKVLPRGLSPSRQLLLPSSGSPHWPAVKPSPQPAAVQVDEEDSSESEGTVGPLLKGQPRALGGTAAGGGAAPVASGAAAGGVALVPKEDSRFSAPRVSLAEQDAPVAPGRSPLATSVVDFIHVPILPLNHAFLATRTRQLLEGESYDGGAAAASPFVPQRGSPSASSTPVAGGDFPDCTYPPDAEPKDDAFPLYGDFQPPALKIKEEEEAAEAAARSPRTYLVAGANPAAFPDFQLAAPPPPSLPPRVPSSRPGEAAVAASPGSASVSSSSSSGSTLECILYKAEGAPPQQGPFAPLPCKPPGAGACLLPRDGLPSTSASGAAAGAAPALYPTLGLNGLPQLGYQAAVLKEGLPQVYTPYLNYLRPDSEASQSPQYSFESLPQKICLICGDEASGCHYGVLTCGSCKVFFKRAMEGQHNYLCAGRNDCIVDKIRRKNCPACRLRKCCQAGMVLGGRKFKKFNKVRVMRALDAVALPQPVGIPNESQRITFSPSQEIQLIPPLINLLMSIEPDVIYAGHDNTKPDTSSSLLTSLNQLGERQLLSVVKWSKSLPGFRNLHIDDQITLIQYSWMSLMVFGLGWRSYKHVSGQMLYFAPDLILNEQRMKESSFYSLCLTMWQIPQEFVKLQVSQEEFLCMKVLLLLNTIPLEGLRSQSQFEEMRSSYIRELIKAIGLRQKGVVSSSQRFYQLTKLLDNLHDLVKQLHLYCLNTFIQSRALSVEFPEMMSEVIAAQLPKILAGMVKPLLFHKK

| Structure (SMILES) | IC50 [1] | Osteoblast Cell Proliferation, 3H-thymidine incorporation vs control (100%) ([2]; 10^-6) | Osteoblast Cell Proliferation, 3H-thymidine incorporation vs control (100%) ([2]; 10^-7) | Osteoblast Cell Proliferation, 3H-thymidine incorporation vs control (100%) ([2]; 10^-8) | Osteoblast Cell Proliferation, 3H-thymidine incorporation vs control (100%) ([2]; 10^-9) | Osteoblast Cell Proliferation, 3H-thymidine incorporation vs control (100%) ([2]; 10^-10) | T47D: Concentration to elicit a 200% increase in T47D Human breast cell proliferation [3] | In-vivo: Active in McGinty Assay [4] | In-vivo: Active in Clauberg Assay [5] | bone mineral content [6] |
| --- | --- | --- | --- | --- | --- | --- | --- | --- | --- | --- |
| Cc1ccc(S(=O)(=O)N2CCCC(c3ccc(Cl)c(Cl)c3)=N2)cc1 [Compound 41, 3-(3,4-dichlorophenyl)-1-(4-methylbenzenesulphonyl)-1,4,5,6-tetrahydropyridazine] | 1.96 nM | 138% | 158% | 166% | 144% | 116% | 4000 | M | – | – |
| Cc1ccc(S(=O)(=O)N2CCCC(c3ccc(Cl)c(C(F)(F)F)c3)=N2)cc1 [Compound 82] | 2.95 nM | – | – | – | – | – | 608 | M | – | – |
| O=S(=O)(c1ccc(Cl)cc1)N1CCCC(c2ccc(Cl)c(Cl)c2)=N1 [Compound 12, 3-(3,4-dichlorophenyl)-1-(4-chlorobenzenesulphonyl)-1,4,5,6-tetrahydropyridazine] | 1 nM | 118% | 115% | 114% | 131% | 135% | 153 | M | C | – |
| O=S(=O)(c1cc(Cl)cc(Cl)c1)N1CCCC(c2ccc(Cl)c(C(F)(F)F)c2)=N1 [Compound 80] | 0.79 nM | – | – | – | – | – | 85 | M | – | – |
| O=S(=O)(c1ccc(Br)cc1)N1CCCC(c2ccc(Cl)c(C(F)(F)F)c2)=N1 [Compound 115, 3-(4-chloro-3-trifluoromethylphenyl)-1-(4-bromobenzenesulphonyl)-1,4,5,6-tetrahydropyridazine] | 2.09 nM | – | – | – | – | – | 72 | – | C | – |
| O=S(=O)(c1ccc(I)cc1)N1CCCC(c2ccc(Cl)c(Cl)c2)=N1 [Compound 40, 3-(3,4-dichlorophenyl)-1-(4-iodobenzenesulphonyl)-1,4,5,6-tetrahydropyridazine] | 1.18 nM | 78% | 90% | 71% | 58% | 53% | 26 | M | C | – |
| CC1CCC(c2ccc(Cl)c(C(F)(F)F)c2)=NN1S(=O)(=O)c1ccc(I)cc1 (stereo not drawn) [Compound 281, 1-(4-Iodobenzenesulfonyl)-3-(3-trifluoromethyl-4-chlorophenyl)-6-methyl-1,4,5,6-tetrahydropyridazine] | 0.02 nM | – | – | – | – | – | 10 | – | C | – |
| O=C(c1ccc(Cl)c(Cl)c1)N1CCCC(c2cccs2)=N1 [Compound 280, 3-(2-Thienyl)-1-(3,4-dichlorobenzoyl)-1,4,5,6-tetrahydropyridazine] | – | – | – | – | – | – | – | – | – | significant increase in bone mineral content |
| O=S(=O)(c1ccc(I)cc1)N1CCCC(c2ccc(Cl)c(C(F)(F)F)c2)=N1 [Compound 1, 3-(4-Chloro-3-trifluoromethylphenyl)-1-(4-iodobenzenesulfonyl)-1,4,5,6-tetrahydropyridazine] | 1.33 nM | – | – | – | – | – | 46 | M | C | – |
| CC1CCC(c2ccc(Cl)c(Cl)c2)=NN1S(=O)(=O)c1ccc(I)cc1 (stereo not drawn) [Compound 282, 1-(4Iodobenzenesulfonyl)-3-(3,4-dichlorophenyl)-6-methyl 1,4,5,6-tetrahydropyridazine] | 0.2 nM | – | – | – | – | – | 10.5 | – | C | – |
| O=S(=O)(c1cccc(C(F)(F)F)c1)N1CCCC(c2ccc(Cl)cc2)=N1 [Compound 35] | 3.01 nM | 82% | 101% | 123% | 150% | 154% | – | M | – | – |
| O=S(=O)(c1ccc(I)cc1)N1CCCC(c2cc(Br)c(Br)s2)=N1 [Compound 278, 3-(4,5-Dibromo-2-thienyl)-1-(4-iodobenzenesulfonyl)-1,4,5,6-tetrahydropyridazine] | 1 nM | – | – | – | – | – | 85 | – | C | – |
| O=S(=O)(c1ccc2c(c1)CCCC2)N1CCCC(c2ccc(Cl)c(C(F)(F)F)c2)=N1 [Compound 78] | 2.44 nM | – | – | – | – | – | 10000 | M | C | – |
| O=S(=O)(c1ccc2ccccc2c1)N1CCCC(c2ccc(Cl)c(Cl)c2)=N1 [Compound 42, 3-(3,4-dichlorophenyl)-1-(2-naphthylenesulfonyl)-1,4,5,6-tetrahydropyridazine] | 0.97 nM | 135% | 144% | 155% | 146% | 166% | 321 | M | – | – |
| O=S(=O)(c1ccc(Cl)cc1)N1CCCC(c2ccc(Cl)c(C(F)(F)F)c2)=N1 [Compound 77] | 1.47 nM | – | – | – | – | – | 286 | M | C | – |
| O=S(=O)(c1ccc(Br)cc1)N1CCCC(c2ccc(Cl)c(Cl)c2)=N1 [Compound 39, 3-(3,4-dichlorophenyl)-1-(4-bromobenzenesulphonyl)-1,4,5,6-tetrahydropyridazine] | 0.7 nM | 92% | 94% | 84% | 115% | 99% | 100 | M | C | – |

— patent US5684151A, “1-arylsulphonyl, arylcarbonyl and 1-arylphosphonyl-3-phenyl-1,4,5,6-tetrahydropyridazines” (priority 1995, dated 1997)
